Measured values reported in US10149809B2, “Skin aging inhibitor and concentrate of resveratrol 3-O-α-glucoside” (priority 2014, dated 2018).
Converted amounts (≈) assume the structure as drawn.

Legend:
Solubility in water = assay type: physicochemical; settings: water
Procedure: (§1) Approximately 5 mg each of resveratrol 3-O-α-glucoside, resveratrol (Tokyo Chemical Industry Co., Ltd.), and resveratrol 3-O-β-glucoside (Tokyo Chemical Industry Co., Ltd.) was weighed, approximately 1 mL of water was added thereto, and the mixture was soaked in a water bath at 25° C. under light-tight conditions, and incubated for 20 hours with occasional stirring. After 20 hours, each of the samples was filtered through a 0.45 μm centrifugal filter, and then the concentration of each of the components in the filtrate was analyzed using HPLC under the same conditions as those described in Production Example 1 above. The dissolved concentration (w/v %) in water at 25° C. was thus determined.

[1] = tested on: skin model (MEL-312B; MatTek); assay: Melanogenesis suppressing effect in skin model (amount of melanin, visual observation); assay type: cell-based; settings: 0.2 wt % in PBS, 50 μL, 16 days; PBS control group = 100%
Procedure: Resveratrol 3-O-α-glucoside, resveratrol (Tokyo Chemical Industry Co., Ltd.), or resveratrol 3-O-β-glucoside (Tokyo Chemical Industry Co., Ltd.) was prepared into a 0.2 wt % solution or suspension with the addition of PBS, and the resulting solution or suspension was used as a test substance. A skin model (MEL-312B; MatTek) was used, and 50 μL of the test substance was added to the horny layer side of the skin model and cultured in a special medium (EPI-100NMM-113; MatTek) at 37° C. for 16 days. On days 2, 4, 7, 9, 11, and 14, the medium and the test substance were replaced with fresh ones. As a control group, the same operation was performed using PBS instead of the test substance.
After 16 days of culture, the skin model was visually observed, and the amount of melanin in the skin model was evaluated. The amount of melanin was measured using the following method. Initially, the collected skin model was subjected to enzymatic degradation by proteinase-K, and was subsequently homogenated in PBS containing 1% triton X-100. Melanin was then extracted by washing with 10% TCA and ethanol. Next, the extracted melanin was dissolved in 0.5 mL of 1N-NaOH containing 10% DMSO at 80° C. for 2 hours, and the amount of melanin was quantified by measuring absorbance at 470 nm.
Resveratrol 3-O-α-glucoside was prepared into a 0.2 wt % solution, a 0.1 wt % solution, or a 0.01 wt % solution with the addition of PBS. The resulting solution was used as a test substance, and the melanogenesis suppressing effect was evaluated using the same method as that of Example 1 above. […]

[2] = Solubility in solvent containing dipropylene glycol; assay type: physicochemical; settings: 25 °C, water, thermodynamic from solid
Procedure: as §1, with “Approximately 40” for “Approximately 5”, “approximately 70 mg” for “approximately 1 mL”, “of a solvent (whose composition is shown in Table 18) containing ethanol (Wako Pure Chemical Industries, Ltd.)” for “of water”, “for 15” for “for 20”, “After 15” for “After 20”, “%)” for “%) in water”
The solubility of resveratrol 3-O-α-glucoside was evaluated under the same conditions as those described in Example 18 above, except that a solvent (whose composition is shown in Table 22) containing dipropylene glycol (Asahi Glass Co., Ltd.) was used.

[3] = Storage stability in 30 vol % aqueous ethanol (coloration, residual content); assay type: physicochemical; settings: 2 mM in 30 vol % aqueous ethanol, 40° C., light-tight, 6 months; for Residual Content (%): HPLC
Procedure: Each of resveratrol 3-O-α-glucoside (produced in Production Example 1), resveratrol (Tokyo Chemical Industry Co., Ltd.), and resveratrol 4′-O-α-glucoside (produced in Production Example 1) was dissolved in a 30 vol % aqueous solution of ethanol to a concentration of 2 mM, and the solution was stored at 40° C. under light-tight conditions. The coloration of the solution after being stored for 6 months was visually observed. Further, absorbances at 430 nm of the solution before and after the storage were measured, and the residual amount of each of the components in the solution was analyzed using HPLC. HPLC was performed under the same conditions as those described in Production Example 1.

[4] = tested on: skin model (EPI-200X; MatTek); assay type: in vitro ADME, human; settings: human, 20 h, 0.2 wt %
Procedure: Using a three-dimensional human skin model, permeabilities of resveratrol 3-O-α-glucoside and resveratrol into the skin model when administered via the skin surface were compared.
Resveratrol 3-O-α-glucoside or resveratrol (Tokyo Chemical Industry Co., Ltd.) was prepared into a 0.2 wt % solution or suspension with the addition of PBS, and the resulting solution was used as a test substance. The skin model (EPI-200X; MatTek) was loaded into a special fixture (EPI-100-FIX; MatTek), and placed in the 6-well plate of the receiver. One-hundred microliters of the test substance were added to the horny layer side, and 5 mL of PBS was added to the receiver side. After being allowed to stand at 37° C. for 20 hours, the skin model was collected, and the surface of the skin model was washed well with PBS. The skin model after being washed was homogenized in PBS. After the homogenate was centrifuged, resveratrols in the supernatant were quantified using HPLC under the same conditions as described in Production Example 1 above, and the amount of resveratrols was converted into the equivalent of agly cones.

| SMILES | solubility thermodynamic at 20 h (Solubility in water; 25 °C, thermodynamic from solid) | Relative Amount of Melanin [1] | solubility thermodynamic at 15 h [2] | Coloration: Difference between Absorbances at 430 nm (Δ A 430) before and after Storage [3] | Coloration: Visual Observation [3] | Residual Content (%) [3] | Concentration in the Skin Model (Value Converted into the Equivalent of Aglycones, μg/cm^2) [4] | Dissolved Concentration (μg/mL) in Water (Solubility in water; 25° C., 20 hours) |
| --- | --- | --- | --- | --- | --- | --- | --- | --- |
| Oc1ccc(C=Cc2cc(O)cc(O)c2)cc1 [Resveratrol, resveratrol] | 30 µg/mL (≈ 131 µM) | 63% | 30 µg/mL (≈ 131 µM) | 1.36 | strongly | 60% | 7.5 μg/cm^2 | – |
| OC[C@H]1O[C@H](Oc2ccc(C=Cc3cc(O)cc(O)c3)cc2)[C@H](O)[C@@H](O)[C@@H]1O [Resveratrol 4′-O-α-Glucoside, resveratrol 4′-O-α-glucoside] | – | – | – | 0.21 | slightly colored | 86% | – | 150 µg/mL |
